How the values were obtained:
rats [1] = assay: Reversal of CFA-induced mechanical hyperalgesia (Randall Sellito test); type: in vivo, rat; details: mean ± SEM, p<0.05 vs vehicle
Experimental: Induction of local inflammation in the rat hind paw will cause a persistent mechanical hyperalgesia that can be measured by determining the threshold to pressure stimuli to give a painful response. The method for complete Freund's adjuvant (CFA) induced mechanical hyperalgesia in rats is largely described in Iadarola et al. Brain Res. (1988) 455, 205-212. Rats are placed under isoflurane anesthesia while the right paw is injected with 50 μl of CFA (Sigma C5881, 1 mg/ml mycobacterium extract in 85% paraffin oil, 15% mannide monooleate) intraplantar. Animals are allowed to recover in soft bedding cages and mechanical hyperalgesia changes measured 24 hours post-CFA injection. Mechanical hyperalgesia (Randall Sellito Test) is determined by gently restraining the rat and placing the paw between the plinth and pusher (Ugo Basile Analgesy-meter). The gram force when the animal withdraws the paw is recorded.
Rats are tested for baseline response prior to CFA injection. Post-CFA response is tested the next morning (about 24 hours post injection of CFA). Rats are randomized based on post-CFA response with any rat showing a score of >150 grams excluded from further testing. A test compound (prodrug) is orally dosed within a range of 1.5 to 15 mg/kg and mechanical threshold for paw withdrawal is measured at 1 and 2 hours post dosing. Statistical significance is defined as a p value <0.05 in an analysis of covariance followed by a Dunnett's post hoc test for each time point. Table 2 below provides the statistically significant results for Example 10 run substantially as above.

rats [2] = assay: Reversal of L5/L6 nerve ligation induced tactile allodynia; type: in vivo, rat; details: 15 mg/kg orally, n=8, ±SEM
Experimental: Unilateral ligation of nerves innervating the hind leg region will result in a chronic persistent pain manifested as tactile allodynia in rats. L5/L6 nerve ligation is performed (Kim et al. Pain (1992) 50, 355-363). Neuropathic injury is produced by tightly ligating the left L5 and L6 spinal nerves under gaseous anesthesia with a mixture of isoflurane (3% for induction and 2% for maintenance) and oxygen. After a minimum of 14 days after surgery, tactile allodynia is evaluated by measuring tactile sensitivity of the injured paw to von Frey filaments with incremental bending forces (0.3 to 15 g) (Chaplan et al. J. of Neuroscience Methods (1994) 53, 55-63). […] Baseline values are determined immediately prior to assessment of test compound. A test compound (prodrug) is orally dosed at 15 mg/kg and the tactile threshold for paw withdrawal is measured at 1, 2 and 4 hours post dosing. Data are expressed as response threshold in grams (g) and values are with standard errors of means (±SE mean) for each time point. Data are analyzed using an analysis of variance followed by a Dunnett's post hoc analysis and represent absolute change in pain threshold (Cmax=maximum Response Baseline) and expressed as Mean [log (maximum response)−log predose score)] (g).

Male Sprague Dawley rats = assay: Reversal of colorectal distension-induced pain behaviors; type: in vivo, rat; details: 90 minutes post dosing, mean ± SEM
Experimental: Visceral pain in rats can be induced by distension of the colorectal cavity and pain monitored by accessing the reflex contraction of abdominal muscles. Measurement of abdominal muscle reflex contractions with pain caused by colorectal distension in the rat is performed substantially as described by Fioramonti et al. Neurogastroenterology and Motility (2003) 15, 363-369 and Urban et al. J. of Pharmacology and Exp. Ther. (1999) 290, 207-213. Male Sprague Dawley rats are surgically implanted with electromyographic (EMG) electrodes in the oblique abdominal muscle and allowed to recover for one week, during which animals are acclimated to handling and partial restraint to minimize effects of stress. Baseline EMG measurements are collected and recorded after the insertion into the rectum (8 cm) of a lubricated latex balloon attached to a pressure monitor/regulator to step the pressure between 20, 40, and 60 mm Hg for a 20 second duration with a 3 minute resting period between trials. A set of three exposures at each pressure is recorded before stepping the pressure up to the next level. Data are collected as the area under the curve for EMG reading (volts per second) during the pressure stimulations, and averaged over the three trials. A test compound (prodrug) is orally dosed within a range of 1.5 to 17 mg/kg 90 minutes prior to the beginning of the colorectal distension. Statistical significance is defined as a p value <0.05 in an analysis of covariance followed by a Dunnett's post hoc test. Table 3 below provides the statistically significant results for Example 10 run substantially as above.

male Sprague-Dawley rats = assay: Reversal of persistent pain induced by formalin injection; type: in vivo; details: po, 2 h, dosed two hours prior to intraplantar formalin, rat

For C[C@H](N)C(=O)N[C@@]1(C(=O)O)CC2(CC2)[C@H]2[C@H](C(=O)O)[C@H]21 [Example 10, (1S,2S,5R,6S)-2-[[(2S)-2-Aminopropanoyl]amino]spiro[bicyclo[3.1.0]hexane-4,1′-cyclopropane]-2,6-dicarboxylic acid dihydrate], the “Paw withdrawal Threshold” value (rats [1]; 1.5 mg/kg po, one hour post dosing, group pre CFA 243 ± 5, 24 hours post CFA 113 ± 8) was 180 ± 14 grams, force, the “Paw withdrawal Threshold” value (rats [1]; 1.5 mg/kg po, two hours post dosing, group pre CFA 243 ± 5, 24 hours post CFA 113 ± 8) was 186 ± 19 grams, force and the “Paw withdrawal Threshold” value (rats [1]; 4.5 mg/kg po, one hour post dosing, group pre CFA 221 ± 10, 24 hours post CFA 114 ± 9) was 153 ± 20 grams, force. The “Paw withdrawal Threshold” value (rats [1]; 4.5 mg/kg po, two hours post dosing, group pre CFA 221 ± 10, 24 hours post CFA 114 ± 9) was 221 ± 20 grams, force, the “Paw withdrawal Threshold” value (rats [1]; 15 mg/kg po, one hour post dosing, group pre CFA 244 ± 4, 24 hours post CFA 108 ± 12, cut-off 250 grams) was 250 ± 0 grams, force and the “Paw withdrawal Threshold” value (rats [1]; 15 mg/kg po, two hours post dosing, group pre CFA 244 ± 4, 24 hours post CFA 108 ± 12) was 232 ± 15 grams, force. The “mechanical threshold (von Frey, paw withdrawal)” value (“mechanical threshold” below) (rats [2]; four hours post dosing, vehicle 2.35±0.62) was 8.63 ± 1.98 g, the “mechanical threshold” value (rats [2]; one hour post dosing, vehicle 1.50±0.60) was 9.06 ± 2.26 g and the “mechanical threshold” value (rats [2]; two hours post dosing, vehicle 1.34±0.75) was 12.31 ± 1.86 g. For the same molecule, the “AUC of EMG reading for abdominal muscle with 60 mmHg colorectal pressure” value (from here on “AUC of EMG reading for abdominal muscle”) (Male Sprague Dawley rats; 1.5 mg/kg po, pre-dosing baseline 853 ± 142, vehicle 849 ± 65) was 618 ± 92 μV/sec, the “AUC of EMG reading for abdominal muscle” value (Male Sprague Dawley rats; 4.5 mg/kg po, pre-dosing baseline 887 ± 152, p<0.05 vs vehicle) was 531 ± 99 μV/sec and the “AUC of EMG reading for abdominal muscle” value (Male Sprague Dawley rats; 17 mg/kg po, pre-dosing baseline 773 ± 134, p<0.05 vs vehicle) was 266 ± 87 μV/sec. For the same molecule, the ED50 (male Sprague-Dawley rats) was 4.8 mg/kg.

— patent US8575214B2, “MGlu 2/3 agonists” (Eli Lilly and Company, priority 2012, dated 2013)
